Publication PMC8715118, “Assessing potentiation of the (α4)3(β2)2 nicotinic acetylcholine receptor by the allosteric agonist CMPI” (The Journal of Biological Chemistry, 2021)
“And” between values parts separate entries of the source, which are not always exact repeats. Identical values can stand only once. Values belong to the compound of their own block, whether it stands above or below them.

Key:
(α4)3(β2)2 nAChR [1] = target: T1, (α4)3(β2)2 nAChR (Homo sapiens, UniProt P17787+P43681); test: Mechanistic (Monod-Wyman-Changeux two-state model) analysis of current responses, WT (α4)3(β2)2 nAChR; format: cell-based; settings: for peak PA: calculated with Equation 2
T1 construct: expressed in transfected cells; host or cells: Xenopus laevis oocytes injected with cRNA, 8:1 α4:β2
T1 sequence (P43681 27-627): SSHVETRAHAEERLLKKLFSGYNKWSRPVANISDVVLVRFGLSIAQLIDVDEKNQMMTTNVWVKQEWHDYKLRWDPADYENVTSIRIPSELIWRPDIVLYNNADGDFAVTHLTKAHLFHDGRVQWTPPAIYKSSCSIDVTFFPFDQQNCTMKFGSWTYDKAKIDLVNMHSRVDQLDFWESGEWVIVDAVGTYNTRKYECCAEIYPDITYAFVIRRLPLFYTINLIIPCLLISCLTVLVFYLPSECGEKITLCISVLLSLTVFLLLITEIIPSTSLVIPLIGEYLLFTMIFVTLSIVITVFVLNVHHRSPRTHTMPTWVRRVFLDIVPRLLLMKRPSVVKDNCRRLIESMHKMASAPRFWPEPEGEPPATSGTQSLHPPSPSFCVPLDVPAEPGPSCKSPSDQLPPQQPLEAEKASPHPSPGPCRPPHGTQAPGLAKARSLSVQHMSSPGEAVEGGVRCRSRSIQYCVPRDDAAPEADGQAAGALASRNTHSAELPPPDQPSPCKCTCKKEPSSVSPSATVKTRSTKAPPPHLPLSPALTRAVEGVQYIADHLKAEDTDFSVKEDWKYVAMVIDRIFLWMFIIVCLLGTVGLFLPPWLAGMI
T1 sequence (P17787 26-502): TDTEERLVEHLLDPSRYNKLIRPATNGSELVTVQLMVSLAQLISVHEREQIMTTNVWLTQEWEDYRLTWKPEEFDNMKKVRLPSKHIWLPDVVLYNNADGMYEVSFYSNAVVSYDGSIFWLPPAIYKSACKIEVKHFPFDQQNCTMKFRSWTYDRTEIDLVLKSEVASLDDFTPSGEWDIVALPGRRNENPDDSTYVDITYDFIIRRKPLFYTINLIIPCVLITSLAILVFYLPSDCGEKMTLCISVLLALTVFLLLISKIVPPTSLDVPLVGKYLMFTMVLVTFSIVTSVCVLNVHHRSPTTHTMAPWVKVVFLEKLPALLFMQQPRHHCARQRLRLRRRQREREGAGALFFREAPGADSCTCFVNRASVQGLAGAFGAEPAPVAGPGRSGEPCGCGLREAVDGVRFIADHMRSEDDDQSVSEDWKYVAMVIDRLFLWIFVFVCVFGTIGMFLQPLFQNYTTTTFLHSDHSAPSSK
Source text: To gain mechanistic insight into receptor activation in the presence of CMPI, we analyzed the currents in the framework of a cyclic two-state (resting and active) allosteric activation model ([31], [32], [33]). In this model, channel opening is mediated by stabilization of the active state by an agonist that, by definition, has higher affinity to the active than resting state.
We commenced by converting the raw amplitudes of current responses to units of probability of being in the active state (PA units).
Further analysis of electrophysiological data was conducted in the framework of the two-state concerted transition model, adapted from the MWC cyclic model originally used to describe enzyme function ([31], [32], [33]). The raw peak amplitudes of current responses were converted to units of probability of being in the active state (PA).
The numbers of α4:β2 and α4:α4 binding sites (Nα4:β2 and Nα4:α4) were constrained to 2 and 1, respectively.
The concentration-response curve for TC-2559 was fitted to the following equation:(3) PA=1/1+L[1+[TC-2559]/KR,TC-2559,α4:β2/1+[TC-2559]/(KR,TC-2559,α4:β2cTC-2559,α4:β2)]^Nα4:β2
The concentration-response data were analyzed using Equation 3, with the value of L modified to reflect receptor activation by TC-2559, and the affinity and efficacy terms in the equation reflecting the values for CMPI. The number of binding sites for CMPI in Equation 3 was constrained to 1.
Curve fitting was done using Origin 2020 (OriginLab Corp). The results are reported as best-fit parameter ±SD of the fit. All data are included in the analysis.

(α4)3(β2)2 nAChR [2] = target: T1, (α4)3(β2)2 nAChR; test: Two-electrode voltage-clamp whole-cell currents, Xenopus oocytes expressing WT (α4)3(β2)2 nAChR; format: cell-based
Experimental: Oocytes-positive female Xenopus laevis were purchased from NASCO, and all procedures were performed according to an animal use protocol approved by the Institutional Animals Care and Use Committee of The University of Texas Health Science Center at Tyler. Ovarian lobules were surgically harvested, treated with collagenase type 2, and Stage V and VI oocytes were visually selected and maintained at 18 °C in modified ND96-gentamicin buffer (96 mM NaCl, 2 mM KCl, 1.8 mM CaCl2, 1 mM MgCl2, 5 mM Hepes, and 50 μg/ml gentamicin, pH 7.6).
pSP64 Poly(A) plasmids with cDNA encoding for human α4 or β2 nAChR subunit were used to prepare cRNA transcripts suitable for oocyte expression. The plasmids were linearized with AseI (hα4) and PvuII (hβ2), then cRNA transcripts were prepared in vitro using mMESSAGE mMACHINE high yield-capped RNA transcription kits (Ambion, Thermo Fisher Scientific), purified on NucAway Spin column (Invitrogen, Thermo Fisher Scientific), and stored at −80 °C until used. Point mutations within the plasmid encoding the α4 nAChR subunit were introduced using QuikChange II Site-Directed Mutagenesis Kit (Agilent Technologies), as described previously ([28]). To generate amino acid substitutions (K64T, E66I, H116V, H116L, and H116A), two custom-designed complementary oligos containing the desired mutation were used (Integrated DNA Technologies). The forward primers were as the following with the codon for mutated amino acids are underlined and nucleotide(s) changes are bolded and italicized:
The oocytes were injected with 10 to 50 ng of a cRNA mix containing α4 (WT or mutant) and β2 RNAs at ratios of 8:1(α4:β) or 1:8 (α4:β2) to bias expression toward (α4)3(β2)2 or (α4)2(β2)3 nAChRs, respectively. The injection of oocytes with RNAs mixture containing four folds or higher α4 RNA than β2 RNA have been established to express receptor population that is made up of three α4 and two β2 subunits ([9], [12], [28], [43], [44], [45]).
24 to 72 h after cRNA injection, Xenopus oocytes were placed in a custom-made recording chamber that is connected to an eight-channel automated perfusion system (Warner Instruments) and perfused with recording buffer (100 mM NaCl, 2 mM KCl, 1 mM CaCl2, 0.8 mM MgCl2, 1 mM EGTA, and 10 mM Hepes, pH 7.5). Unless otherwise specified in figure legends, each recording run included several drug applications (10 s of an agonist with or without CMPI or NS9283) separated by 3 to 4 min buffer wash intervals. Between recording runs, the oocytes were washed with recording buffer for at last 5 min. The oocytes were voltage-clamped at −50 mV using Oocyte Clamp OC-725B (Warner Instruments). The currents were digitized using Digidata 1550A (Axon Instruments, Molecular Devices), and the peak currents were quantified using pCLAMP 10 (Axon Instruments), then normalized and analyzed using Excel 2010 (Microsoft) and SigmaPlot 11.0 (Systat Software). For NS9283 and CMPI potentiation of agonist-induced responses, the peak currents were normalized to current elicited by agonist alone applied within the same recording run. For the effect of coapplication of 1 μM NS9283 or CMPI on agonist concentration-response curve, the peak currents were normalized to current elicited by saturating concentration of agonist applied within the same recording run. […] I0 = 100 for NS9283 and CMPI potentiation of agonist-induced responses and I0 = 0 for agonist concentration-response experiments. The best-fit values for Imax and EC50 ± SD are presented.

nAChR = test system: nAChR; set-up: method as in PMID 1378342; settings: nonselective, allosteric antagonist; cited from earlier work

SMILES: CC(=O)OCC[N+](C)(C)C [ACh, Acetylcholine chloride]
- PA,1 mM ACh (peak probability of being in the active state) ((α4)3(β2)2 nAChR [1]; 1 mM ACh, normalized to 1 mM ACh + 3 μM dFBr): 0.36 ± 0.05 and 0.36
- free energy change toward stabilization of the active state (ΔGgating) ((α4)3(β2)2 nAChR [1]; binding to the single α4:α4 site): -1.27 kcal/mol
- free energy change toward stabilization of the active state (ΔGgating,total) ((α4)3(β2)2 nAChR [1]; binding to the two α4:β2 sites): -1.69 kcal/mol
- peak PA ((α4)3(β2)2 nAChR [1]; occupation of the two α4:β2 sites and the single α4:α4 site with ACh): 0.36
- peak PA ((α4)3(β2)2 nAChR [1]; occupation of the two α4:β2 sites with ACh): 0.072
- ΔGgating per site ((α4)3(β2)2 nAChR [1]; per α4:β2 site): -0.84 kcal/mol

- outward current, mean amplitude, % of the absolute response to 1 mM ACh ((α4)3(β2)2 nAChR [2]; 100 μM mecamylamine, holding current): 2.1 ± 0.5%
SMILES: CNC1(C)C2CCC(C2)C1(C)C (stereo not shown) [mecamylamine]
- IC50s (nAChR): submicromolar range

SMILES: CN1CCC[C@H]1c1cccnc1 [nicotine]
- current response produced by a saturating concentration (100 μM), % of current elicited by 1 mM ACh ((α4)3(β2)2 nAChR [2]; 100 μM agonist): 73 ± 3%
- current response at subsaturating concentration, % of the current response to 1 mM ACh ((α4)3(β2)2 nAChR [2]; subsaturating (1 μM) agonist): 2.9 ± 0.4%
